US20170157135A1 (Novogen Limited, priority 2013, published 2017)
Each block holds one compound with its values, some of them ahead of it.

Legend:
Format in all cases: cell-based
[1] = system: SKMEL28 melanoma (SK-MeI-28) cells; test: Cell viability assay (MTT), SKMEL28; conditions: Homo sapiens, SK-MEL-28, 48 hr treatment
Experimental: (§1) Cell viability assays were also conducted to assess the anti-proliferative effects of the anti-tropomyosin compounds. Briefly, cells (1×10^3/well) were plated (96-well) and treated (48 hr) with anti-tropomyosin drug and viability measured using 3-(4,5-dimethylthiazol-2-yl)-2,5-diphenylterazolium bromide MTT. Cell viability was normalized to control (vehicle alone) and dose-response curves, and half maximal effective concentration (EC50) values were determined using Graph Pad Prism 5 (nonlinear regression sigmoidal dose-response variable slope).

[2] = system: SHEP neuroblastoma (SH-EP) cells; test: Cell viability assay (MTT), SHEP; conditions: 48 hr treatment
Experimental: as §1

[3] = system: SK-N-SH neuroblastoma cells; test: Anti-proliferative assay (cell-titre luminescent), SK-N-SH; conditions: Homo sapiens, 72 hours, luminescence
Experimental: (§2) The ability of compounds 2002, 2009 and 2013-2064 to inhibit the proliferation of cancer cells representative of neuroblastoma, melanoma, prostate cancer, colorectal cancer, non-small cell lung carcinoma, and triple negative breast cancer was assessed. These studies were conducted by contract research (GVK-BIO). Briefly, a pre-determined number of cells as calculated from cell growth assays for each of the cell lines employed were seeded into their respective culture medium (using ATCC culture parameters—http://www.atcc.org) and cultured for 24 h at 37° C. and 5% CO2 in 96-well culture plates. Once attached, each cell line was then exposed to various concentrations of each respective analogue (30, 10, 3, 1, 0.3 and 0.1 μM), cultured for a further 72 hours and exposed to cell-titre luminescent reagent (100 μL/well) for a further 30 minutes). Luminescence was captured using an EnVision multilabel reader and the data for each analogue concentration compared against no treatment control. Cell viability was normalized to control (vehicle alone) and dose-response curves, and half maximal effective concentration (EC50) values were determined using Graph Pad Prism 6 (nonlinear regression sigmoidal dose-response variable slope).

SK-Mel-28 melanoma cells = test: Anti-proliferative assay (cell-titre luminescent), SK-Mel-28; conditions: Homo sapiens; SK-Mel-28, 72 hours, luminescence
Experimental: as §2

[4] = system: DU145 prostate cancer cells; test: Anti-proliferative assay (cell-titre luminescent), DU145; conditions: Homo sapiens, DU-145; DU145, 72 hours, luminescence
Experimental: as §2

[5] = system: PC3 prostate cancer cells; test: Anti-proliferative assay (cell-titre luminescent), PC3; conditions: PC3, 72 hours, luminescence
Experimental: as §2

[6] = system: CaCo2 colorectal cancer cells; test: Anti-proliferative assay (cell-titre luminescent), CaCo2; conditions: Homo sapiens, Caco-2; CaCo2, 72 hours, luminescence
Experimental: as §2

A549 lung (NSLC) cells = test: Anti-proliferative assay (cell-titre luminescent), A549; conditions: Homo sapiens; A549, 72 hours, luminescence
Experimental: as §2

[7] = system: MDA-MB-231 breast cancer cells; test: Anti-proliferative assay (cell-titre luminescent), MDA-MB-231; conditions: Homo sapiens; MDA-MB-231, 72 hours, luminescence
Experimental: as §2

IC50 [1]: 1.64 µM | IC50 [2]: 11.5 µM
Structure (SMILES): C/C(=C\C(=O)N1CCN(CCc2ccccc2)CC1)c1c(C)n(CCCN(C)C)c2ccccc12 [Compound 2001, (E)-3-(1-(3-(dimethylamino)propyl)-2-methyl-1H-indol-3-yl)-1-(4-phenethylpiperazin-1-yl)but-2-en-1-one]

IC50 [1]: 32.7 µM | IC50 [2]: 198 µM
Structure (SMILES): Cc1c(/C=C/C(=O)N2CCN(C(=O)c3ccccc3)CC2)c2ccccc2n1CCCN(C)C [Compound 2004, (E)-1-(4-benzoylpiperazin-1-yl)-3-(1-(3-(dimethylamino)propyl)-2-methyl-1H-indol-3-yl)prop-2-en-1-one]

IC50 [1]: 41 µM | IC50 [2]: 12.9 µM
Structure (SMILES): CCCCN1CCN(C(=O)/C=C/c2c(C)n(CCCN(C)C)c3ccccc23)CC1 [Compound 2005, (E)-1-(4-butylpiperazin-1-yl)-3-(1-(3-(dimethylamino)propyl)-2-methyl-1H-indol-3-yl)prop-2-en-1-one]

Structure (SMILES): CCN(CC)CCCn1c(C)c(C(=O)N2CCN(CCc3ccc(OC)cc3)CC2)c2cc(OC)ccc21 [Compound 2051, (1-(3-(diethylamino)propyl)-5-methoxy-2-methyl-1H-indol-3-yl)(4-(4-methoxyphenethyl)piperazin-1-yl)methanone]
IC50 [3]: 10.9 µM | IC50 (SK-Mel-28 melanoma cells): 6 µM | IC50 [4]: > 30 µM | IC50 [5]: > 30 µM | IC50 [6]: > 30 µM | IC50 (A549 lung (NSLC) cells): > 30 µM | IC50 [7]: 10.3 µM

Structure (SMILES): CCN(CC)CCCn1c(C)c(C(=O)N2CCN(CCc3ccc4c(c3)OCO4)CC2)c2cc(OC)ccc21 [Compound 2052, (4-(2-(benzo[d][1,3]dioxol-5-yl)ethyl)piperazin-1-yl)(1-(3-(diethylamino)propyl)-5-methoxy-2-methyl-1H-indol-3-yl)methanone]
IC50 [3]: 10.9 µM | IC50 (SK-Mel-28 melanoma cells): 5.7 µM | IC50 [4]: 9.2 µM | IC50 [5]: 10.9 µM | IC50 [6]: 16 µM | IC50 (A549 lung (NSLC) cells): 11.8 µM | IC50 [7]: 12.7 µM

Structure (SMILES): CCN(CC)CCCn1c(C)c(C(=O)N2CCN(CCc3cccc(F)c3)CC2)c2cc(OC)ccc21 [Compound 2053, (1-(3-(diethylamino)propyl)-5-methoxy-2-methyl-1H-indol-3-yl)(4-(3-fluorophenethyl)piperazin-1-yl)methanone]
IC50 [3]: 4.8 µM | IC50 (SK-Mel-28 melanoma cells): 4.7 µM | IC50 [4]: 13.6 µM | IC50 [5]: 11 µM | IC50 [6]: 12.2 µM | IC50 (A549 lung (NSLC) cells): 13.5 µM | IC50 [7]: 12.6 µM

Structure (SMILES): CCN(CC)CCCn1c(C)c(C(=O)N2CCN(CCc3cccc(OC)c3)CC2)c2cc(OC)ccc21 [Compound 2054, (1-(3-(diethylamino)propyl)-5-methoxy-2-methyl-1H-indol-3-yl)(4-(3-methoxyphenethyl)piperazin-1-yl)methanone]
IC50 [3]: 10.4 µM | IC50 (SK-Mel-28 melanoma cells): 5.4 µM | IC50 [4]: > 30 µM | IC50 [5]: 6.9 µM | IC50 [6]: > 30 µM | IC50 (A549 lung (NSLC) cells): 17.8 µM | IC50 [7]: 11.8 µM

Structure (SMILES): CCN(CC)CCCn1c(C)c(C(=O)N2CCN(CCc3ccccc3)CC2)c2cc(OC)ccc21 [Compound 2055, (1-(3-(diethylamino)propyl)-5-methoxy-2-methyl-1H-indol-3-yl)(4-phenethylpiperazin-1-yl)methanone]
IC50 [3]: > 30 µM | IC50 (SK-Mel-28 melanoma cells): 1.1 µM | IC50 [4]: > 30 µM | IC50 [5]: > 30 µM | IC50 [6]: > 30 µM | IC50 (A549 lung (NSLC) cells): > 30 µM | IC50 [7]: > 30 µM

Structure (SMILES): COc1ccc2c(c1)c(C(=O)N1CCN(CCc3ccc(F)cc3)CC1)c(C)n2CCCN1CCN(C)CC1 [Compound 2056, (4-(4-fluorophenethyl)piperazin-1-yl)(5-methoxy-2-methyl-1-(3-(4-methylpiperazin-1-yl)propyl)-1H-indol-3-yl)methanone]
IC50 [3]: 11.2 µM | IC50 (SK-Mel-28 melanoma cells): 4.8 µM | IC50 [4]: 18.9 µM | IC50 [5]: 10.8 µM | IC50 [6]: 10.1 µM | IC50 (A549 lung (NSLC) cells): 14.7 µM | IC50 [7]: 13.9 µM

Structure (SMILES): COc1ccc(CCN2CCN(C(=O)c3c(C)n(CCCN4CCN(C)CC4)c4ccc(OC)cc34)CC2)cc1 [Compound 2057, (5-methoxy-2-methyl-1-(3-(4-methylpiperazin-1-yl)propyl)-1H-indol-3-yl)(4-(4-methoxyphenethyl)piperazin-1-yl)methanone]
IC50 [3]: 7.2 µM | IC50 (SK-Mel-28 melanoma cells): 4.4 µM | IC50 [4]: 30 µM | IC50 [5]: 9 µM | IC50 [6]: 13.3 µM | IC50 (A549 lung (NSLC) cells): 21.1 µM | IC50 [7]: 7.5 µM

Structure (SMILES): COc1ccc2c(c1)c(C(=O)N1CCN(CCc3ccc4c(c3)OCO4)CC1)c(C)n2CCCN1CCN(C)CC1 [Compound 2058, (4-(2-(benzo[d][1,3]dioxol-5-yl)ethyl)piperazin-1-yl)(5-methoxy-2-methyl-1-(3-(4-methylpiperazin-1-yl)propyl)-1H-indol-3-yl)methanone]
IC50 [3]: 8 µM | IC50 (SK-Mel-28 melanoma cells): 4.8 µM | IC50 [4]: 21.1 µM | IC50 [5]: 12 µM | IC50 [6]: 10.8 µM | IC50 (A549 lung (NSLC) cells): 13.9 µM | IC50 [7]: 29.8 µM

Structure (SMILES): COc1ccc2c(c1)c(C(=O)N1CCN(CCc3cccc(F)c3)CC1)c(C)n2CCCN1CCN(C)CC1 [Compound 2059, (4-(3-fluorophenethyl)piperazin-1-yl)(5-methoxy-2-methyl-1-(3-(4-methylpiperazin-1-yl)propyl)-1H-indol-3-yl)methanone]
IC50 [3]: 4.2 µM | IC50 (SK-Mel-28 melanoma cells): 3.8 µM | IC50 [4]: 10.1 µM | IC50 [5]: 9.2 µM | IC50 [6]: 19.6 µM | IC50 (A549 lung (NSLC) cells): 10.2 µM | IC50 [7]: 7 µM

Structure (SMILES): COc1cccc(CCN2CCN(C(=O)c3c(C)n(CCCN4CCN(C)CC4)c4ccc(OC)cc34)CC2)c1 [Compound 2060, (5-methoxy-2-methyl-1-(3-(4-methylpiperazin-1-yl)propyl)-1H-indol-3-yl)(4-(3-methoxyphenethyl)piperazin-1-yl)methanone]
IC50 [3]: 10.8 µM | IC50 (SK-Mel-28 melanoma cells): 7.5 µM | IC50 [4]: > 30 µM | IC50 [5]: > 30 µM | IC50 [6]: > 30 µM | IC50 (A549 lung (NSLC) cells): > 30 µM | IC50 [7]: 6.1 µM

Structure (SMILES): COc1ccc2c(c1)c(C(=O)N1CCN(CCc3ccccc3)CC1)c(C)n2CCCN1CCN(C)CC1 [Compound 2061, (5-methoxy-2-methyl-1-(3-(4-methylpiperazin-1-yl)propyl)-1H-indol-3-yl)(4-phenethylpiperazin-1-yl)methanone]
IC50 [3]: > 30 µM | IC50 (SK-Mel-28 melanoma cells): 8.7 µM | IC50 [4]: > 30 µM | IC50 [5]: > 30 µM | IC50 [6]: > 30 µM | IC50 (A549 lung (NSLC) cells): > 30 µM | IC50 [7]: > 30 µM

Structure (SMILES): CCOc1ccc2c(c1)c(C(=O)N1CCN(CCc3ccc(F)cc3)CC1)c(C)n2CCCN(C)C [Compound 2062, (1-(3-(dimethylamino)propyl)-5-ethoxy-2-methyl-1H-indol-3-yl)(4-(4-fluorophenethyl)piperazin-1-yl)methanone]
IC50 [3]: 20.6 µM | IC50 (SK-Mel-28 melanoma cells): 9 µM | IC50 [4]: > 30 µM | IC50 [5]: 13.1 µM | IC50 [6]: 18.6 µM | IC50 (A549 lung (NSLC) cells): > 30 µM | IC50 [7]: 8.1 µM

Structure (SMILES): CCOc1ccc2c(c1)c(C(=O)N1CCN(CCc3ccc(F)cc3)CC1)c(C)n2CCCN(CC)CC [Compound 2063, (1-(3-(diethylamino)propyl)-5-ethoxy-2-methyl-1H-indol-3-yl)(4-(4-fluorophenethyl)piperazin-1-yl)methanone]
IC50 [3]: 5.3 µM | IC50 (SK-Mel-28 melanoma cells): 3.5 µM | IC50 [4]: 13 µM | IC50 [5]: 7.2 µM | IC50 [6]: 4.1 µM | IC50 (A549 lung (NSLC) cells): 10.9 µM | IC50 [7]: 3 µM

Structure (SMILES): CCOc1ccc2c(c1)c(C(=O)N1CCN(CCc3ccc(F)cc3)CC1)c(C)n2CCCN1CCN(C)CC1 [Compound 2064, (5-ethoxy-2-methyl-1-(3-(4-methylpiperazin-1-yl)propyl)-1H-indol-3-yl)(4-(4-fluorophenethyl)piperazin-1-yl)methanone]
IC50 [3]: 4.3 µM | IC50 (SK-Mel-28 melanoma cells): 3.5 µM | IC50 [4]: 14 µM | IC50 [5]: 6.9 µM | IC50 [6]: 29.1 µM | IC50 (A549 lung (NSLC) cells): 7.8 µM | IC50 [7]: 5.8 µM
